Assay results taken from patent US7851467B2, “Carbamate compounds as 5-HT4 receptor agonists” (Theravance, Inc., priority 2005, dated 2010).

Key:
[1] = Pharmacokinetic study in the rat; type: in vivo; conditions: male Sprague-Dawley rats
Procedure: Assay 6: Pharmacokinetic Study in the Rat
Aqueous solution formulations of test compounds were prepared in 0.1% lactic acid at a pH of between about 5 and about 6. Male Sprague-Dawley rats (CD strain, Charles River Laboratories, Wilmington, Mass.) were dosed with test compounds via intravenous administration (IV) at a dose of 2.5 mg/kg or by oral gavage (PO) at a dose of 5 mg/kg. The dosing volume was 1 mL/kg for IV and 2 mL/kg for PO administration. Serial blood samples were collected from animals pre-dose, and at 2 (IV only), 5, 15, and 30 min, and at 1, 2, 4, 8, and 24 hours post-dose. Concentrations of test compounds in blood plasma were determined by liquid chromatography-mass spectrometry analysis (LC-MS/MS) (MDS SCIEX, API 4000, Applied Biosystems, Foster City, Calif.) with a lower limit of quantitation of 1 ng/mL.
Standard pharmacokinetic parameters were assessed by non-compartmental analysis (Model 201 for IV and Model 200 for PO) using WinNonlin (Version 4.0.1, Pharsight, Mountain View, Calif.). The maximum in the curve of test compound concentration in blood plasma vs. time is denoted Cmax. The area under the concentration vs. time curve from the time of dosing to the last measurable concentration (AUC(O-t)) was calculated by the linear trapezoidal rule. Oral bioavailability (F(%)), i.e. the dose-normalized ratio of AUC(O-t) for PO administration to AUC(O-t) for IV administration, can be calculated as: F(%)=AUCPO/AUCIV×DoseIV/DosePO×100%
The compounds of the invention that were tested in this assay had Cmax values between about 0.15 to about 0.35 μg/mL and AUC(0−t) values between about 0.5 to about 1.1 μg·hr/mL.

[2] = biological target: T1, human 5-HT3A receptor (Homo sapiens, UniProt P46098); assay: Radioligand binding assay on 5-HT3A human receptors: determination of receptor subtype selectivity; conditions: [3H]-GR65630 at 0.50 nM for 5-HT3A
T1 construct: host or cells: HEK-293
T1 sequence (P46098 24-478): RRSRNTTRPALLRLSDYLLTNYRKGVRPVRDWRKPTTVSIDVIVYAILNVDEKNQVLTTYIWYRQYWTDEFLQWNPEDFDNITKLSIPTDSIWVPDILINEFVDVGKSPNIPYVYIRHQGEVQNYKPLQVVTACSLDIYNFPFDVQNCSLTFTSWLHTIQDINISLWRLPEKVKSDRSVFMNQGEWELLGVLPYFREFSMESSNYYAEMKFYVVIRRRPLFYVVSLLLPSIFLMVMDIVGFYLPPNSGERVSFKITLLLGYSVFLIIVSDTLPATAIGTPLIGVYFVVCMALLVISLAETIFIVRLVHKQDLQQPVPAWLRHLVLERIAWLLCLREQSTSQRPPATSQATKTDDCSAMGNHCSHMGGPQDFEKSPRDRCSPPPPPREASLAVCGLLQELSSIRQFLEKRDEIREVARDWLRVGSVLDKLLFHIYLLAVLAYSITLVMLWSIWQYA
Procedure: Assay 2: Radioligand Binding Assay on 5-HT3A Human Receptors: Determination of Receptor Subtype Selectivity
a. Membrane Preparation 5-HT3A
HEK-293 (human embryonic kidney) cells stably-transfected with human 5-HT3A receptor cDNA were obtained from Dr. Michael Bruess (University of Bonn, […]) (Bmax=˜[…] protein, as determined using [^3H]-GR65630 membrane radioligand binding assay). […]
Radioligand binding assays were performed in 96-well polypropylene assay plates in a total assay volume of 200 μL containing 1.5-2 μg membrane protein in 50 mM HEPES pH 7.4, containing 0.025% BSA assay buffer. […] Non-specific binding was determined in the presence of 10 μM unlabeled MDL72222. […] Filter plates were washed three times with filtration buffer (ice-cold 50 mM HEPES, pH7.4) to remove unbound radioactivity. Plates were dried, 35 μL Microscint-20 liquid scintillation fluid (Packard BioScience Co., Meriden, Conn.) was added to each well and plates were counted in a Packard Topcount liquid scintillation counter (Packard BioScience Co., Meriden, Conn.).
Binding data were analyzed using the non-linear regression procedure described above to determine Ki values. The BOTTOM (curve minimum) was fixed to the value for nonspecific binding, as determined in the presence of 10 μM MDL72222. The quantity [L] in the Cheng-Prusoff equation was defined as the concentration [^3H]-GR65630. […]

[3] = blood plasma, dosing IV 2.5 mg/kg or PO 5 mg/kg

CC(C)n1c(=O)n(C(=O)N[C@H]2C[C@H]3CC[C@@H](C2)N3CCCOC(=O)N2CCN(C(=O)C3CCCO3)CC2)c2ccccc21 (stereo partly drawn) [Example 1, 4-(tetrahydrofuran-2-carbonyl)piperazine-1-carboxylic acid 3-{(1S,3R,5R)-3-[(3-isopropyl-2-oxo-2,3-dihydrobenzoimidazole-1-carbonyl)amino]-8-aza-bicyclo[3.2.1]oct-8-yl}propyl ester] gave an AUC(0-t) [1, 3] of 970 ng·h/mL, a Cmax [1, 3] of 320 ng/mL and a bioavailability ([1]; plasma, PO 5 mg/kg vs IV 2.5 mg/kg, dose-normalized AUC ratio, read-out: oral bioavailability F(%)) of 55%. For the same compound, the “5-HT4/5-HT3 receptor subtype selectivity, ratio Ki(5-HT3A)/Ki(5-HT4(c))” value [2] was 160.
